From ChEMBL document CHEMBL3885861, “Open TG-GATES”

Organism: Rattus norvegicus
Experiment: Open TG-GATES - Regimen: Single
Format: toxicity, organism-based, Sprague-Dawley
Design: regimen Single, gender Male, age 6 weeks
Conditions: in vivo, po, 30 mg/kg, route gavage, dose level Low; for APTT / Bas / Eos / Fbg / Hb / Ht / Lym / MCH / MCHC / MCV / Mono / Neu / PT / Plat / RBC / Ret / WBC: tissue Blood; for ALP / ALT / AST / BUN / CRE / DBIL / GLC / IP / K / Na / PL / RALB / TBIL / TC / TG / TP / gamma-GTP: tissue Plasma

NS(=O)(=O)c1cc(C(=O)O)c(NCc2ccco2)cc1Cl [FUROSEMIDE] showed a TERMINAL_BW (3 h) of 201.3 g, an APTT (3 h) of 18.1 s and a Bas (3 h) of 0%. For the same molecule, the Eos (3 h) was 1%, the Fbg (3 h) was 278.8 mg/dL and the Hb (3 h) was 14 g/dL. The Ht (3 h) was 41.6%, the Lym (3 h) was 74.2% and the MCH (3 h) was 21.2 pg. It also gave an MCHC (3 h) of 33.6%, an MCV (3 h) of 63.2 fL and a Mono (3 h) of 4.4%. The Neu (3 h) was 19.6%, the PT (3 h) was 15.4 s and the Plat (3 h) was 117.4 x10_4/uL. It also gave an RBC (3 h) of 658.6 x10_4/ul, a Ret (3 h) of 7.9% and a WBC (3 h) of 68.2 x10_2/uL. It also gave an ALP (3 h) of 1468.8 IU/L, an ALT (3 h) of 46 IU/L and an AST (3 h) of 77 IU/L. The BUN (3 h) was 15.4 mg/dL, the CRE (3 h) was 0.2 mg/dL and the DBIL (3 h) was 0.01 mg/dL. It also gave a GLC (3 h) of 179.2 mg/dL, an IP (3 h) of 10.5 mg/dL and a K (3 h) of 3.7 meq/L. It also gave a Na (3 h) of 141.6 meq/L, a PL (3 h) of 149.8 mg/dL and an RALB (3 h) of 2.8 g/dL. The TBIL (3 h) was 0.058 mg/dL, the TC (3 h) was 79.4 mg/dL and the TG (3 h) was 63.6 mg/dL. The TP (3 h) was 5.9 g/dL, the gamma-GTP (3 h) was 1 IU/L and the TERMINAL_BW (6 h) was 199.3 g. The APTT (6 h) was 17.5 s, the Bas (6 h) was 0% and the Eos (6 h) was 1%. It also gave a Fbg (6 h) of 324.6 mg/dL, a Hb (6 h) of 14.1 g/dL and a Ht (6 h) of 41.9%. For the same molecule, the Lym (6 h) was 74.4%, the MCH (6 h) was 21.6 pg and the MCHC (6 h) was 33.7%. It also gave an MCV (6 h) of 64 fL, a Mono (6 h) of 3.8% and a Neu (6 h) of 20%. For the same molecule, the PT (6 h) was 15.2 s, the Plat (6 h) was 124.8 x10_4/uL and the RBC (6 h) was 655.4 x10_4/ul. For the same molecule, the Ret (6 h) was 7.9%, the WBC (6 h) was 92.3 x10_2/uL and the ALP (6 h) was 1320.8 IU/L. The ALT (6 h) was 45.6 IU/L, the AST (6 h) was 74.6 IU/L and the BUN (6 h) was 17.8 mg/dL. For the same molecule, the CRE (6 h) was 0.2 mg/dL, the DBIL (6 h) was 0.016 mg/dL and the GLC (6 h) was 181.2 mg/dL. For the same molecule, the IP (6 h) was 10.4 mg/dL, the K (6 h) was 3.6 meq/L and the Na (6 h) was 141 meq/L. For the same molecule, the PL (6 h) was 156.2 mg/dL, the RALB (6 h) was 2.9 g/dL and the TBIL (6 h) was 0.074 mg/dL. For the same molecule, the TC (6 h) was 88.2 mg/dL, the TG (6 h) was 44.2 mg/dL and the TP (6 h) was 6.1 g/dL. It also gave a gamma-GTP (6 h) of 1 IU/L, a TERMINAL_BW (9 h) of 199.5 g and an APTT (9 h) of 17.3 s. It also gave a Bas (9 h) of 0%, an Eos (9 h) of 1% and a Fbg (9 h) of 310.2 mg/dL. It also gave a Hb (9 h) of 14 g/dL, a Ht (9 h) of 41.4% and a Lym (9 h) of 73%. The MCH (9 h) was 21.5 pg, the MCHC (9 h) was 33.8% and the MCV (9 h) was 63.8 fL. For the same molecule, the Mono (9 h) was 3.2%, the Neu (9 h) was 22% and the PT (9 h) was 15.4 s. For the same molecule, the Plat (9 h) was 118.1 x10_4/uL, the RBC (9 h) was 649.2 x10_4/ul and the Ret (9 h) was 8.1%. It also gave a WBC (9 h) of 89.5 x10_2/uL, an ALP (9 h) of 1152.2 IU/L and an ALT (9 h) of 38.6 IU/L. The AST (9 h) was 68.6 IU/L, the BUN (9 h) was 16.4 mg/dL and the CRE (9 h) was 0.2 mg/dL. The DBIL (9 h) was 0.01 mg/dL, the GLC (9 h) was 181.4 mg/dL and the IP (9 h) was 10.7 mg/dL. It also gave a K (9 h) of 3.7 meq/L, a Na (9 h) of 143 meq/L and a PL (9 h) of 147.4 mg/dL. The RALB (9 h) was 2.7 g/dL, the TBIL (9 h) was 0.072 mg/dL and the TC (9 h) was 81 mg/dL. For the same molecule, the TG (9 h) was 38 mg/dL, the TP (9 h) was 5.8 g/dL and the gamma-GTP (9 h) was 0.8 IU/L. For the same molecule, the TERMINAL_BW (24 h) was 224.4 g, the APTT (24 h) was 17.3 s and the Bas (24 h) was 0.2%. The Eos (24 h) was 1%, the Fbg (24 h) was 267 mg/dL and the Hb (24 h) was 13.3 g/dL. For the same molecule, the Ht (24 h) was 39.7%, the Lym (24 h) was 78.6% and the MCH (24 h) was 21.8 pg. For the same molecule, the MCHC (24 h) was 33.5%, the MCV (24 h) was 65.1 fL and the Mono (24 h) was 2.8%. For the same molecule, the Neu (24 h) was 16.4%, the PT (24 h) was 15.8 s and the Plat (24 h) was 118.7 x10_4/uL. It also gave an RBC (24 h) of 610 x10_4/ul, a Ret (24 h) of 7.4% and a WBC (24 h) of 96 x10_2/uL. It also gave an ALP (24 h) of 1538.8 IU/L, an ALT (24 h) of 44.6 IU/L and an AST (24 h) of 73.6 IU/L. It also gave a BUN (24 h) of 16 mg/dL, a CRE (24 h) of 0.2 mg/dL and a DBIL (24 h) of 0.01 mg/dL. The GLC (24 h) was 183.4 mg/dL, the IP (24 h) was 7.7 mg/dL and the K (24 h) was 4 meq/L. For the same molecule, the Na (24 h) was 142.6 meq/L, the PL (24 h) was 147.8 mg/dL and the RALB (24 h) was 2.6 g/dL. The TBIL (24 h) was 0.052 mg/dL, the TC (24 h) was 81.8 mg/dL and the TG (24 h) was 60.8 mg/dL. The TP (24 h) was 5.6 g/dL and the gamma-GTP (24 h) was 0.8 IU/L.
